ChEMBL document CHEMBL1201861, “Genomics of Drug Sensitity in Cancer screening data, Wellcome Trust Sanger Institute”

Experiments:
COLO-741 = test: cells; format: functional, cell-based; conditions: Homo sapiens
Description: SANGER: Inhibition of human COLO-741 cell growth in a cell viability assay.

Ca-Ski = test: cells; format: functional, cell-based; conditions: Homo sapiens;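 note: cell viability assay measuring inhibition of Ca-Ski cell growth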
Description: SANGER: Inhibition of human Ca-Ski cell growth in a cell viability assay.

EB-3 = test: cells; format: functional, cell-based, Homo sapiens; conditions: Homo sapiens, EB-3;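 note: human EB-3 cells, growth inhibition read out via a cell viability assay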
Description: SANGER: Inhibition of human EB-3 cell growth in a cell viability assay.

ECC4 = test: cells; format: functional, cell-based, Homo sapiens; conditions: Homo sapiens, ECC4;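 note: growth inhibition of ECC4 cells, read out with a cell viability assay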
Description: SANGER: Inhibition of human ECC4 cell growth in a cell viability assay.

G-401 = test: cells; format: functional, cell-based; conditions: Homo sapiens
Description: SANGER: Inhibition of human G-401 cell growth in a cell viability assay.

GMS-10 = test: cells; format: functional, cell-based; conditions: Homo sapiens;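 note: growth inhibition of GMS-10 cells, read out as cell viability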
Description: SANGER: Inhibition of human GMS-10 cell growth in a cell viability assay.

HCC1806 = test: cells; format: functional, cell-based; conditions: Homo sapiens;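 note: growth inhibition of the cancer cell line, determined with a cell viability assay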
Description: SANGER: Inhibition of human HCC1806 cell growth in a cell viability assay.

HPAF-II = test: cells; format: functional, cell-based; conditions: Homo sapiens;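 note: growth inhibition of HPAF-II cells, read out with a cell viability assay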
Description: SANGER: Inhibition of human HPAF-II cell growth in a cell viability assay.

HSC-4 = test: cells; format: functional, cell-based; conditions: Homo sapiens;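 note: growth inhibition of human HSC-4 cells, read out with a cell viability assay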
Description: SANGER: Inhibition of human HSC-4 cell growth in a cell viability assay.

HT-3 = test: cells; format: functional, cell-based; conditions: Homo sapiens;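 note: growth inhibition measured with a cell viability readout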
Description: SANGER: Inhibition of human HT-3 cell growth in a cell viability assay.

IGROV-1 = test: cells; format: functional, cell-based; conditions: Homo sapiens;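 note: reduction of IGROV-1 cell growth, read out with a viability assay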
Description: SANGER: Inhibition of human IGROV-1 cell growth in a cell viability assay.

K052 = test: cells; format: functional, cell-based, Homo sapiens; conditions: Homo sapiens, K052;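 note: Read-out from a cell viability assay, IC50 reflecting suppression of K052 cell growth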
Description: SANGER: Inhibition of human K052 cell growth in a cell viability assay.

KARPAS-422 = test: cells; format: functional, cell-based, Homo sapiens; conditions: Homo sapiens, KARPAS-422
Description: SANGER: Inhibition of human KARPAS-422 cell growth in a cell viability assay.

KP-N-YN = test: cells; format: functional, cell-based; conditions: Homo sapiens;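 note: growth inhibition of KP-N-YN cells, read out with a cell viability assay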
Description: SANGER: Inhibition of human KP-N-YN cell growth in a cell viability assay.

KYSE-140 = test: cells; format: functional, cell-based; conditions: Homo sapiens;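 note: cell viability assay measuring growth inhibition in human KYSE-140 cells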
Description: SANGER: Inhibition of human KYSE-140 cell growth in a cell viability assay.

KYSE-150 cell line = test: cells; format: functional, cell-based; conditions: Homo sapiens;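 note: growth inhibition of human KYSE-150 cells, read out with a cell viability assay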
Description: SANGER: Inhibition of human KYSE-150 cell growth in a cell viability assay.

KYSE-270 = test: cells; format: functional, cell-based; conditions: Homo sapiens;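 note: cell growth inhibition measured with a viability assay in the human KYSE-270 line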
Description: SANGER: Inhibition of human KYSE-270 cell growth in a cell viability assay.

KYSE-510 = test: cells; format: functional, cell-based; conditions: Homo sapiens;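 note: cell viability readout used to measure how strongly growth of the cell line is suppressed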
Description: SANGER: Inhibition of human KYSE-510 cell growth in a cell viability assay.

LB647-SCLC = test: cells; format: functional, cell-based, Homo sapiens; conditions: Homo sapiens, LB647-SCLC;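 note: cell growth inhibition, read out by a viability assay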
Description: SANGER: Inhibition of human LB647-SCLC cell growth in a cell viability assay.

LC4-1 = test: cells; format: functional, cell-based, Homo sapiens; conditions: Homo sapiens, LC4-1;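 note: growth inhibition of LC4-1 cells, read out with a cell viability assay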
Description: SANGER: Inhibition of human LC4-1 cell growth in a cell viability assay.

LU-99A = test: cells; format: functional, cell-based; conditions: Homo sapiens;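 note: growth inhibition of LU-99A cells, read out with a cell viability assay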
Description: SANGER: Inhibition of human LU-99A cell growth in a cell viability assay.

MDA-MB-453 = test: cells; format: functional, cell-based; conditions: Homo sapiens
Description: SANGER: Inhibition of human MDA-MB-453 cell growth in a cell viability assay.

ME-180 = test: cells; format: functional, cell-based; conditions: Homo sapiens;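 note: cell viability assay measuring growth inhibition of ME-180 cells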
Description: SANGER: Inhibition of human ME-180 cell growth in a cell viability assay.

MFH-ino = test: cells; format: functional, cell-based, Homo sapiens; conditions: Homo sapiens, MFH-ino;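 note: growth inhibition of human MFH-ino cells, read out by a cell viability assay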
Description: SANGER: Inhibition of human MFH-ino cell growth in a cell viability assay.

MKN-7 = test: cells; format: functional, cell-based; conditions: Homo sapiens;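 note: growth inhibition of MKN-7 cells, read out with a cell viability assay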
Description: SANGER: Inhibition of human MKN7 cell growth in a cell viability assay.

NB12 = test: cells; format: functional, cell-based; conditions: Homo sapiens;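 note: growth inhibition of human NB12 cells, read out by a cell viability assay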
Description: SANGER: Inhibition of human NB12 cell growth in a cell viability assay.

NCI-H2196 = test: cells; format: functional, cell-based, Homo sapiens; conditions: Homo sapiens, NCI-H2196; read-out: IC50;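 note: cell viability assay used as the readout of growth inhibition in NCI-H2196 cells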
Description: SANGER: Inhibition of human NCI-H2196 cell growth in a cell viability assay.

NCI-H2347 = test: cells; format: functional, cell-based; conditions: Homo sapiens;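 note: growth inhibition of the cell line, read out with a cell viability assay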
Description: SANGER: Inhibition of human NCI-H2347 cell growth in a cell viability assay.

NCI-H2405 = test: cells; format: functional, cell-based; conditions: Homo sapiens;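 note: growth inhibition of the human cell line, read out with a cell viability assay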
Description: SANGER: Inhibition of human NCI-H2405 cell growth in a cell viability assay.

NCI-H460 = test: cells; format: functional, cell-based; conditions: Homo sapiens;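 note: cell viability assay scoring growth inhibition of human NCI-H460 cells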
Description: SANGER: Inhibition of human NCI-H460 cell growth in a cell viability assay.

NCI-H510A = test: cells; format: functional, cell-based, Homo sapiens; conditions: Homo sapiens, NCI-H510A;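 note: growth inhibition of NCI-H510A cells, read out with a cell viability assay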
Description: SANGER: Inhibition of human NCI-H510A cell growth in a cell viability assay.

NCI-H522 = test: cells; format: functional, cell-based; conditions: Homo sapiens;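 note: cell viability assay measuring growth inhibition of human NCI-H522 cells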
Description: SANGER: Inhibition of human NCI-H522 cell growth in a cell viability assay.

NCI-H810 = test: cells; format: functional, cell-based; conditions: Homo sapiens;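 note: IC50 reflects inhibition of cancer cell line growth, read out with a cell viability assay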
Description: SANGER: Inhibition of human NCI-H810 cell growth in a cell viability assay.

OVCAR-8 = test: cells; format: functional, cell-based; conditions: Homo sapiens;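 note: growth inhibition of human OVCAR-8 cells, read out by a cell viability assay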
Description: SANGER: Inhibition of human OVCAR-8 cell growth in a cell viability assay.

P31-FUJ = test: cells; format: functional, cell-based, Homo sapiens; conditions: Homo sapiens, P31-FUJ;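 note: growth inhibition of P31-FUJ cells, read out with a viability assay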
Description: SANGER: Inhibition of human P31-FUJ cell growth in a cell viability assay.

PF-382 = test: cells; format: functional, cell-based, Homo sapiens; conditions: Homo sapiens, PF-382
Description: SANGER: Inhibition of human PF-382 cell growth in a cell viability assay.

RL = test: cells; format: functional, cell-based, Homo sapiens; conditions: Homo sapiens, RL
Description: SANGER: Inhibition of human RL cell growth in a cell viability assay.

RMG-I = test: cells; format: functional, cell-based; conditions: Homo sapiens;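 note: growth inhibition of human RMG-I cells, read out with a cell viability assay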
Description: SANGER: Inhibition of human RMG-I cell growth in a cell viability assay.

RO82-W-1 = test: cells; format: functional, cell-based; conditions: Homo sapiens;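 note: growth inhibition of human RO82-W-1 cells, measured with a cell viability assay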
Description: SANGER: Inhibition of human RO82-W-1 cell growth in a cell viability assay.

RPMI 8402 = test: SANGER: Inhibition of human RPMI-8402 cell growth in a cell viability assay.; format: functional, cell-based; conditions: Homo sapiens, RPMI 8402
RVH-421 = test: cells; format: functional, cell-based; conditions: Homo sapiens
Description: SANGER: Inhibition of human RVH-421 cell growth in a cell viability assay.

SBC-5 = test: cells; format: functional, cell-based; conditions: Homo sapiens;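 note: cell viability assay read-out, IC50 is the concentration that inhibits growth of the cells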
Description: SANGER: Inhibition of human SBC-5 cell growth in a cell viability assay.

SCC-4 = test: cells; format: functional, cell-based; conditions: Homo sapiens;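 note: growth inhibition of human SCC-4 cells, read out as cell viability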
Description: SANGER: Inhibition of human SCC-4 cell growth in a cell viability assay.

SCLC-21H = test: cells; format: functional, cell-based, Homo sapiens; conditions: Homo sapiens, SCLC-21H;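 note: growth inhibition of cultured human SCLC-21H cells, read out with a cell viability assay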
Description: SANGER: Inhibition of human SCLC-21H cell growth in a cell viability assay.

SNU-449 = test: cells; format: functional, cell-based; conditions: Homo sapiens
Description: SANGER: Inhibition of human SNU-449 cell growth in a cell viability assay.

SW1088 = test: cells; format: functional, cell-based; conditions: Homo sapiens;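 note: growth inhibition of human SW1088 cells, read out by a cell viability assay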
Description: SANGER: Inhibition of human SW1088 cell growth in a cell viability assay.

SW756 = test: cells; format: functional, cell-based; conditions: Homo sapiens;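 note: growth inhibition of human SW756 cells, read out with a cell viability assay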
Description: SANGER: Inhibition of human SW756 cell growth in a cell viability assay.

SW948 = test: cells; format: functional, cell-based; conditions: Homo sapiens;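 note: growth inhibition of SW948 cells, read out with a cell viability assay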
Description: SANGER: Inhibition of human SW948 cell growth in a cell viability assay.

639-V = test: cells; format: functional, cell-based; conditions: Homo sapiens;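 note: growth inhibition of 639-V cells, read out with a cell viability assay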
Description: SANGER: Inhibition of human 639-V cell growth in a cell viability assay.

A 172 = test: cells; format: functional, cell-based; conditions: Homo sapiens;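 note: growth inhibition of A172 cells, measured with a cell viability readout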
Description: SANGER: Inhibition of human A172 cell growth in a cell viability assay.

A2058 = test: cells; format: functional, cell-based; conditions: Homo sapiens;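 note: reduction of A2058 cell growth, read out with a viability assay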
Description: SANGER: Inhibition of human A2058 cell growth in a cell viability assay.

ARH-77 = test: cells; format: functional, cell-based, Homo sapiens; conditions: Homo sapiens, ARH-77;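 note: growth inhibition of ARH-77 cells, read out by a cell viability assay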
Description: SANGER: Inhibition of human ARH-77 cell growth in a cell viability assay.

BCPAP = test: cells; format: functional, cell-based; conditions: Homo sapiens;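 note: growth inhibition of BCPAP cells, read out in a cell viability assay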
Description: SANGER: Inhibition of human BCPAP cell growth in a cell viability assay.

BL-41 = test: cells; format: functional, cell-based; conditions: Homo sapiens;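 note: growth inhibition of human BL-41 cells, read out with a cell viability assay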
Description: SANGER: Inhibition of human BL-41 cell growth in a cell viability assay.

BL-70 = test: SANGER: Inhibition of human BL-70 cell growth in a cell viability assay.; format: functional, cell-based; conditions: Homo sapiens, BL-70
WSU-NHL = test: cells; format: functional, cell-based, Homo sapiens; conditions: Homo sapiens, WSU-NHL;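 note: growth inhibition of human WSU-NHL cells, read out with a cell viability assay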
Description: SANGER: Inhibition of human WSU-NHL cell growth in a cell viability assay.

COLO-680N = test: cells; format: functional, cell-based; conditions: Homo sapiens;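 note: cell viability assay used to measure inhibition of COLO-680N cell growth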
Description: SANGER: Inhibition of human COLO-680N cell growth in a cell viability assay.

Structure (SMILES): CCCCCCCCCCCC1=C(O)C(=O)C=C(O)C1=O [EMBELIN]
- IC50 (COLO-741): 7.42 µM
- IC50 (Ca-Ski): 18.2 µM
- IC50 (EB-3): 20.8 µM
- IC50 (ECC4): 23.8 µM
- IC50 (G-401): 8.32 µM
- IC50 (GMS-10): 23 µM
- IC50 (HCC1806): > 32 µM
- IC50 (HPAF-II): 25.4 µM
- IC50 (HSC-4): 11.1 µM
- IC50 (HT-3): 27.6 µM
- IC50 (IGROV-1): 5.64 µM
- IC50 (K052): 29 µM
- IC50 (KARPAS-422): 20.7 µM
- IC50 (KP-N-YN): > 32 µM
- IC50 (KYSE-140): 5.04 µM
- IC50 (KYSE-150 cell line): 12.1 µM
- IC50 (KYSE-270): 8.86 µM
- IC50 (KYSE-510): 5.81 µM
- IC50 (LB647-SCLC): > 32 µM
- IC50 (LC4-1): > 32 µM
- IC50 (LU-99A): > 32 µM
- IC50 (MDA-MB-453): > 32 µM
- IC50 (ME-180): 30.6 µM
- IC50 (MFH-ino): 5.58 µM
- IC50 (MKN-7): > 32 µM
- IC50 (NB12): 8.23 µM
- IC50 (NCI-H2196): > 32 µM
- IC50 (NCI-H2347): 7.48 µM
- IC50 (NCI-H2405): 8 µM
- IC50 (NCI-H460): 6.09 µM
- IC50 (NCI-H510A): > 32 µM
- IC50 (NCI-H522): 17.7 µM
- IC50 (NCI-H810): 7.73 µM
- IC50 (OVCAR-8): 11.3 µM
- IC50 (P31-FUJ): > 32 µM
- IC50 (PF-382): 6.17 µM
- IC50 (RL): > 32 µM
- IC50 (RMG-I): 9.24 µM
- IC50 (RO82-W-1): > 32 µM
- IC50 (RPMI 8402): 4.05 µM
- IC50 (RVH-421): 11.5 µM
- IC50 (SBC-5): > 32 µM
- IC50 (SCC-4): 17.4 µM
- IC50 (SCLC-21H): > 32 µM
- IC50 (SNU-449): 16.5 µM
- IC50 (SW1088): 16.7 µM
- IC50 (SW756): > 32 µM
- IC50 (SW948): > 32 µM
- IC50 (639-V): > 32 µM
- IC50 (A 172): 8.78 µM
- IC50 (A2058): 2.32 µM
- IC50 (ARH-77): 16.4 µM
- IC50 (BCPAP): 13.7 µM
- IC50 (BL-41): 5.5 µM
- IC50 (BL-70): 5.83 µM
- IC50 (WSU-NHL): 13.6 µM
- IC50 (COLO-680N): 19.4 µM

Structure (SMILES): COc1ccc(-c2cc3nccn3c(Nc3ncccc3C(N)=O)n2)cc1OC
- IC50 (COLO-741): > 8 µM
- IC50 (Ca-Ski): 4.55 µM
- IC50 (EB-3): > 8 µM
- IC50 (ECC4): > 8 µM
- IC50 (G-401): 5.75 µM
- IC50 (GMS-10): > 8 µM
- IC50 (HCC1806): > 8 µM
- IC50 (HPAF-II): > 8 µM
- IC50 (HSC-4): > 8 µM
- IC50 (HT-3): > 8 µM
- IC50 (IGROV-1): 2.53 µM
- IC50 (K052): > 8 µM
- IC50 (KARPAS-422): 2.5 µM
- IC50 (KP-N-YN): > 8 µM
- IC50 (KYSE-140): 3.75 µM
- IC50 (KYSE-150 cell line): 6.05 µM
- IC50 (KYSE-270): 1.45 µM
- IC50 (KYSE-510): 2.87 µM
- IC50 (LB647-SCLC): > 8 µM
- IC50 (LC4-1): 5.98 µM
- IC50 (LU-99A): > 8 µM
- IC50 (MDA-MB-453): > 8 µM
- IC50 (ME-180): > 8 µM
- IC50 (MFH-ino): > 8 µM
- IC50 (MKN-7): > 8 µM
- IC50 (NB12): > 8 µM
- IC50 (NCI-H2196): > 8 µM
- IC50 (NCI-H2347): > 8 µM
- IC50 (NCI-H2405): > 8 µM
- IC50 (NCI-H460): 2.46 µM
- IC50 (NCI-H510A): > 8 µM
- IC50 (NCI-H522): > 8 µM
- IC50 (NCI-H810): 4.44 µM
- IC50 (OVCAR-8): > 8 µM
- IC50 (P31-FUJ): > 8 µM
- IC50 (PF-382): 2.41 µM
- IC50 (RL): > 8 µM
- IC50 (RMG-I): > 8 µM
- IC50 (RO82-W-1): > 8 µM
- IC50 (RPMI 8402): 1.77 µM
- IC50 (RVH-421): > 8 µM
- IC50 (SBC-5): > 8 µM
- IC50 (SCC-4): > 8 µM
- IC50 (SCLC-21H): > 8 µM
- IC50 (SNU-449): > 8 µM
- IC50 (SW1088): > 8 µM
- IC50 (SW756): > 8 µM
- IC50 (SW948): > 8 µM
- IC50 (639-V): 1.43 µM
- IC50 (A 172): 2.22 µM
- IC50 (A2058): > 8 µM
- IC50 (ARH-77): 3.06 µM
- IC50 (BCPAP): 3.17 µM
- IC50 (BL-41): 1.39 µM
- IC50 (BL-70): 0.671 µM
- IC50 (WSU-NHL): 1.38 µM
- IC50 (COLO-680N): > 8 µM
